Reference: patent publication US9340577B2, “HLA binding motifs and peptides and their uses” (priority 1992, dated 2016)
Read-outs that look alike come from different tables or passages of the source. No end group written: not given here.

Columns and labels:
Assay in all cases: biochemical
[1] = molecular target: DRB1*1201 (Homo sapiens, UniProt P01903+P01911, A100R/A169T/D57E/D86V/F55L/H45Y/K41T/L162R/M171V/P40S/Q125H/Q178H/Q39Y/Q99D/R42G/S66L/T262R/V114A/V67L/W38E/Y59H/Y61H/Y89S); type: binding
[2] = molecular target: DRB1*1101 (Homo sapiens, UniProt P01903+P01911, A100R/A169T/A87E/I96F/K41T/L162R/M171V/P40S/Q125H/Q178H/Q39Y/Q99D/R42S/S66Y/T262R/V115G/W38E)
Sequence of DRB1*1101 (P01903 26-254 limits assumed, other chains not shown): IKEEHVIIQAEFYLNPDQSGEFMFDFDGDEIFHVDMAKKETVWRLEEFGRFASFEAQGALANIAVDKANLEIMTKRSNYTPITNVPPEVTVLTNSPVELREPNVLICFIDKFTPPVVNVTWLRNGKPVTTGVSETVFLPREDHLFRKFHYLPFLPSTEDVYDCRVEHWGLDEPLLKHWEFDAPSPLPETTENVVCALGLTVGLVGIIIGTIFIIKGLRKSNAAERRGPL

[3] = molecular target: DRB1*0405 (Homo sapiens, UniProt P01903+P01911, A100R/A169T/D86S/F76Y/I96L/K127E/L162R/M171V/N62H/P40V/Q125Y/R42H/S133A/S149N/S66Y/V115G/V209L/W38E); type: binding
[4] = molecular target: DRB1*1501 (Homo sapiens, UniProt P01903+P01911); type: binding
[5] = molecular target: DRB1*1302 (Homo sapiens, UniProt P01903+P01911, A100E/A169T/K41T/L162R/M171V/P40S/Q125H/Q178H/Q39Y/Q99D/R42S/S66N/T262R/V115G/W38E/Y61H); type: binding
Sequence of DRB1*1302 (P01903 26-254 limits assumed, other chains not shown): as above

[6] = molecular target: DR4w4 (DRB1*0401) (Homo sapiens, UniProt P01903+P01911, A100K/A169T/F76Y/I96L/K127E/L162R/M171V/N62H/P40V/Q125Y/R42H/S133A/S149N/S66Y/V115G/V209L/W38E); type: binding
[7] = molecular target: DRB5*0101 (Homo sapiens, UniProt P01903+Q30154)
[8] = molecular target: DRB1*0802 (Homo sapiens, UniProt P01903+P01911, A100R/A103L/A169T/F76Y/H45Y/I96F/K41T/L162R/M171V/P40S/Q125H/Q178H/Q39Y/Q99D/R218S/R42G/S66Y/V115G/W38E); type: binding
[9] = molecular target: DRB1*0901 (Homo sapiens, UniProt P01903+P01911, A100R/A103E/D57H/D86V/F55Y/F60I/F76Y/I96F/K127E/L162R/M171V/P40D/Q125H/Q99R/R33Q/R42F/S133A/S66N/T210M/V115G/W38K/Y107V/Y59G/Y89S); type: binding
[10] = molecular target: DR7 (DRB1*0701) (Homo sapiens, UniProt P01903+P01911, A100R/A102G/A103Q/D57E/D86V/E43K/F76Y/K127E/L162R/M171V/P40G/Q125H/Q99D/R33Q/R42Y/R54Q/S133A/S66F/T210M/V115G/Y107V/Y59L/Y89S); type: binding
[11] = molecular target: DRB4*0101 (Homo sapiens, UniProt P01903+P13762, G164S); type: binding
[12] = molecular target: DR1 (DRB1*0101) (Homo sapiens, UniProt P01903+P01911, A100R/D57E/F55L/F60I/F76Y/I96L/L162R/M171V/P40L/Q125E/R42F/V115G/Y59C); type: binding

Row | Compound | IC50 [1] [nM] | IC50 [2] [µM] | IC50 [3] [µM] | IC50 [4] [µM] | IC50 [5] [nM] | IC50 [6] [nM] | IC50 [7] [µM] | IC50 [8] [µM] | IC50 [9] [µM] | IC50 [10] [µM] | IC50 [11] [nM] | IC50 [12] [µM] | IC50 ([2]; Binding affinity DRB1 *1101) [µM] | IC50 ([7]; Binding affinity DRB5 *0101) [µM]
1 | CC(C)C[C@H](NC(=O)[C@H](CCC(=O)O)NC(=O)[C@H](CCCCN)NC(=O)[C@H](C)N)C(=O)N[C@@H](CCCCN)C(=O)N[C@@H](Cc1ccccc1)C(=O)N[C@H](C(=O)N[C@H](C(=O)N[C@@H](CC(C)C)C(=O)N[C@H](C(=O)N[C@@H](Cc1ccccc1)C(=O)N[C@@H](CCCNC(=N)N)C(=O)N[C@@H](Cc1c[nH]cn1)C(=O)NCC(=O)N[C@@H](CC(=O)O)C(=O)O)C(C)C)[C@@H](C)O)C(C)C [68,0025] | 693 |  |  |  |  |  |  |  |  |  |  |  |  | 
2 | CC[C@H](C)[C@H](N)C(=O)N[C@@H](CC(C)C)C(=O)N[C@@H](CC(C)C)C(=O)N[C@@H](Cc1c[nH]c2ccccc12)C(=O)N[C@@H](CCC(N)=O)C(=O)N1CCC[C@H]1C(=O)N[C@H](C(=O)N1CCC[C@H]1C(=O)N[C@H](C(=O)N[C@@H](Cc1c[nH]cn1)C(=O)N[C@H](C(=O)N[C@H](C(=O)N1CCC[C@H]1C(=O)N[C@@H](CC(C)C)C(=O)N[C@@H](CO)C(=O)O)C(C)C)[C@@H](C)O)C(C)C)[C@@H](C)CC [68,0038] | 7290 |  |  |  |  |  |  |  |  |  |  |  |  | 
3 | CC[C@H](C)[C@H](NC(=O)[C@H](CCCCN)NC(=O)[C@H](C)NC(=O)[C@@H]1CCCN1C(=O)[C@H](CCC(=O)O)NC(=O)[C@H](CO)NC(=O)[C@H](CC(C)C)NC(=O)[C@H](CCCNC(=N)N)NC(=O)[C@H](CC(C)C)NC(=O)[C@H](CC(C)C)NC(=O)[C@H](CCSC)NC(=O)[C@H](CC(C)C)NC(=O)[C@H](CC(=O)O)NC(=O)[C@@H](N)Cc1c[nH]cn1)C(=O)N[C@H](C(=O)O)[C@@H](C)O [Peptide 68.0011] | 84 |  |  |  |  |  |  |  |  |  |  |  |  | 
4 | CC[C@H](C)[C@H](NC(=O)[C@H](CS)NC(=O)[C@H](Cc1c[nH]cn1)NC(=O)[C@H](C)NC(=O)[C@H](C)NC(=O)[C@@H](NC(=O)[C@H](CC(C)C)NC(=O)[C@@H](NC(=O)[C@H](Cc1c[nH]c2ccccc12)NC(=O)[C@H](CCC(N)=O)NC(=O)[C@@H]1CCCN1C(=O)[C@@H](N)Cc1c[nH]cn1)C(C)C)[C@@H](C)O)C(=O)N[C@@H](CCCNC(=N)N)C(=O)N[C@@H](CC(N)=O)C(=O)N[C@@H](CCCCN)C(=O)O [Peptide 68.0064] | 5790 |  |  |  |  |  |  |  |  |  |  |  |  | 
5 | CSCC[C@H](NC(=O)[C@H](CC(C)C)NC(=O)[C@H](CC(=O)O)NC(=O)[C@@H](N)Cc1c[nH]cn1)C(=O)N[C@@H](CC(C)C)C(=O)N[C@@H](CC(C)C)C(=O)N[C@@H](CCCNC(=N)N)C(=O)N[C@@H](CC(C)C)C(=O)N[C@@H](CO)C(=O)N[C@@H](CCC(=O)O)C(=O)N1CCC[C@H]1C(=O)N[C@@H](C)C(=O)N[C@@H](CCC(=O)O)C(=O)N[C@@H](CC(C)C)C(=O)N[C@H](C(=O)O)[C@@H](C)O [Peptide 68.0073] | 520 |  |  |  |  |  |  |  |  |  |  |  |  | 
6 | CC[C@H](C)[C@H](NC(=O)[C@H](CCC(N)=O)NC(=O)[C@@H](NC(=O)[C@H](Cc1ccccc1)NC(=O)[C@H](CC(N)=O)NC(=O)[C@H](Cc1ccc(O)cc1)NC(=O)[C@H](CC(C)C)NC(=O)[C@H](Cc1ccccc1)NC(=O)[C@@H](N)CCCCN)[C@@H](C)O)C(=O)N1CCC[C@H]1C(=O)N[C@@H](Cc1c[nH]cn1)C(=O)N[C@@H](CC(C)C)C(=O)N[C@@H](C)C(=O)NCC(=O)N[C@H](C(=O)O)[C@@H](C)O [Peptide 68.0087] | 1240 |  |  |  |  |  |  |  |  |  |  |  |  | 
7 | CSCC[C@H](NC(=O)[C@H](CC(C)C)NC(=O)[C@@H]1CCCN1C(=O)[C@@H](NC(=O)[C@@H](N)CS)[C@@H](C)O)C(=O)N[C@@H](Cc1ccc(O)cc1)C(=O)N[C@@H](CO)C(=O)N[C@@H](CC(C)C)C(=O)N[C@H](C(=O)N[C@@H](Cc1c[nH]cn1)C(=O)N[C@@H](CC(N)=O)C(=O)N[C@@H](CC(C)C)C(=O)N[C@H](C(=O)N[C@@H](CCCCN)C(=O)N[C@@H](CCC(=O)O)C(=O)O)[C@@H](C)O)C(C)C [Peptide 68.0113] | 1730 |  |  |  |  |  |  |  |  |  |  |  |  | 
8 | CSCC[C@H](NC(=O)[C@H](CC(C)C)NC(=O)[C@H](CCC(N)=O)NC(=O)[C@H](CC(=O)O)NC(=O)[C@H](CC(N)=O)NC(=O)[C@H](CCSC)NC(=O)[C@H](CCSC)NC(=O)[C@H](CCCNC(=N)N)NC(=O)[C@H](CC(C)C)NC(=O)[C@@H](N)C(C)C)C(=O)N[C@@H](Cc1ccccc1)C(=O)N[C@@H](CC(C)C)C(=O)N[C@@H](CCC(=O)O)C(=O)N[C@@H](CCCNC(=N)N)C(=O)N[C@@H](C)C(=O)O [Peptide 68.0130] | 98 |  |  |  |  |  |  |  |  |  |  |  |  | 
9 | LIKFFQGSVISFVNS [Peptide 89.0135] |  | > 20 | > 20 | > 20 | 71 | > 20000 | > 20 | 7.98 | > 20 | > 20 | 3730 | > 20 |  | 
10 | LKRFLQGIPKKNCIL [Peptide 89.0016] |  |  | > 20 | 3.62 | > 20000 | 944 |  | 3.29 | 7.67 | > 20 | 1700 | 0.069 | 2.54 | 0.0055
11 | LKTVKIPNTVQVIQG [Peptide 90.0017] |  |  | 19.2 | > 20 | 33 | > 20000 |  | > 20 | > 20 | 0.777 | > 20000 | 8.18 | > 20 | > 20
12 | LSQVKIPKTITVSTG [Peptide 89.0158] |  |  | > 20 | 1.91 | > 20000 | 373 |  | > 20 | 5.48 | 5.83 | > 20000 | 4.5 | 3.63 | > 20
13 | LVQIKCPPLLITTNI [Peptide 89.0138] |  | > 20 | > 20 | > 20 | > 20000 | > 20000 | > 20 | > 20 | > 20 | > 20 | 18 | > 20 |  | 
14 | NHQVVPALSVSKAKA [Peptide 89.0168] |  |  | > 20 | 7.34 | 900 | 959 |  | > 20 | > 20 | > 20 | > 20000 | > 20 | > 20 | > 20
15 | NSIFDFGEMVQWAYD [Peptide 89.0106] |  |  | > 20 | 9.98 | 532 | 5250 |  | > 20 | > 20 | 5.98 | 3950 | 4.85 | > 20 | > 20
16 | QQQMFLGTVKIPPTV [Peptide 89.0187] |  |  | 6.33 | 1 | 3340 | 70 |  | 7.29 | > 20 | > 20 | 1590 | 0.743 | 5.88 | > 20
17 | RNLVDGNPISLDRKH [Peptide 89.0137] |  | > 20 | > 20 | > 20 | > 20000 | 1040 | > 20 | > 20 | > 20 | 7.38 | 992 | 11.2 |  | 
18 | RQHLANHPAATHTKA [Peptide 89.0155] |  |  | > 20 | 8.66 | 878 | > 20000 |  | > 20 | > 20 | > 20 | > 20000 | > 20 | 16 | > 20
19 | SQLLNIPETHMVIEP [Peptide 89.0102] |  |  | > 20 | > 20 | > 20000 | > 20000 |  | > 20 | > 20 | > 20 | 807 | > 20 | > 20 | > 20
